Columns and labels:
Assay in all cases: Radiometric kinase panel
Type in all cases: biochemical
[1] = molecular target: T1, CDC42BPB (Homo sapiens, UniProt Q9Y5S2)
T1 construct: either as full-length or enzymatically active fragments; purchased ProQinase GmbH (Reaction Biology)
Summary of the method: (§1)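 Activity was measured radiometrically from [gamma-33P]-ATP incorporation into substrate. The kinases were recombinant human GST- or His-tagged proteins, full-length or active fragments, expressed in Sf9 or E. coli. Compound in 10% DMSO was added before the enzyme/substrate mix, which started the reaction.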

[2] = molecular target: T2, CDK12/CycK (Homo sapiens, UniProt Q9NYV4)
T2 construct: either as full-length or enzymatically active fragments; purchased ProQinase GmbH (Reaction Biology)
Summary of the method: as §1

[3] = molecular target: T3, CDK16/CycY (Homo sapiens, UniProt Q00536)
T3 construct: either as full-length or enzymatically active fragments; purchased ProQinase GmbH (Reaction Biology)
Summary of the method: as §1

[4] = molecular target: T4, CSF1R (Homo sapiens, UniProt P07333)
T4 construct: either as full-length or enzymatically active fragments; purchased ProQinase GmbH (Reaction Biology); host or cells: Sf9 insect cells or E. coli
T4 sequence (P07333 20-972): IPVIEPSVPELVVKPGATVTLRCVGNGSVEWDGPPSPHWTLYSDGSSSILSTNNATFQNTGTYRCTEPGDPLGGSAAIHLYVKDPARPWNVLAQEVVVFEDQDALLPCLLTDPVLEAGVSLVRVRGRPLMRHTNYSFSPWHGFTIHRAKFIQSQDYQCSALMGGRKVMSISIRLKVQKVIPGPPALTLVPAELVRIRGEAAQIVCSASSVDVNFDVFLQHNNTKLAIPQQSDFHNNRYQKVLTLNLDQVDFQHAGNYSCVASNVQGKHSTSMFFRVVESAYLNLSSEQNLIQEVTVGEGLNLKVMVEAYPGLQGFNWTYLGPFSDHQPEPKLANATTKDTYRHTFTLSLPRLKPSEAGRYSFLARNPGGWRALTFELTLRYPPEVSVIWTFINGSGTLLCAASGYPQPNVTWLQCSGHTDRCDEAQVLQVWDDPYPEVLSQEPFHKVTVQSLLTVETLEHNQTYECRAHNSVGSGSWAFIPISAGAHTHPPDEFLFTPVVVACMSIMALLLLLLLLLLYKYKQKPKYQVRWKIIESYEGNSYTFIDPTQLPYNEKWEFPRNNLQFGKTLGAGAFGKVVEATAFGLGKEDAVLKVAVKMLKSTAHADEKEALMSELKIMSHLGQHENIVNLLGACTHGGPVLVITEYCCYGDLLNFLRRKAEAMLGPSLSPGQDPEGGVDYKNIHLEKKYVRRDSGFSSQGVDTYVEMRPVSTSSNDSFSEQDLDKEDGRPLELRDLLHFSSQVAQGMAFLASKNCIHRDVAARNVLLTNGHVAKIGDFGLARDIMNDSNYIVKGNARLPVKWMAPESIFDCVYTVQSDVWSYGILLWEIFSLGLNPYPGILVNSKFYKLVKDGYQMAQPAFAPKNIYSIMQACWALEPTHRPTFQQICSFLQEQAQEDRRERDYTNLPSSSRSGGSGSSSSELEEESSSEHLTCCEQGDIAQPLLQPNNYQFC
Summary of the method: as §1

[5] = molecular target: T5, EPHA1 (Homo sapiens, UniProt P21709)
T5 construct: either as full-length or enzymatically active fragments; purchased ProQinase GmbH (Reaction Biology)
Summary of the method: as §1

[6] = molecular target: T6, ERBB2 (Homo sapiens, UniProt P04626)
T6 construct: either as full-length or enzymatically active fragments; purchased ProQinase GmbH (Reaction Biology)
Summary of the method: as §1

[7] = molecular target: T7, FYN (Homo sapiens, UniProt P06241)
T7 construct: purchased ProQinase GmbH (Reaction Biology)
Summary of the method: as §1

[8] = molecular target: T8, GSG2 (Homo sapiens, UniProt Q8TF76)
T8 construct: either as full-length or enzymatically active fragments; purchased ProQinase GmbH (Reaction Biology); host or cells: Sf9 insect cells or E. coli
Summary of the method: as §1

[9] = molecular target: T9, IKKalpha (Homo sapiens, UniProt O15111)
T9 construct: either as full-length or enzymatically active fragments; purchased ProQinase GmbH (Reaction Biology)
Summary of the method: as §1

[10] = molecular target: T10, JAK1 (Homo sapiens, UniProt P23458)
T10 construct: purchased ProQinase GmbH (Reaction Biology)
Summary of the method: as §1

[11] = molecular target: T11, KIT (Homo sapiens, UniProt P10721)
T11 construct: either as full-length or enzymatically active fragments; purchased ProQinase GmbH (Reaction Biology)
T11 sequence (P10721 26-976): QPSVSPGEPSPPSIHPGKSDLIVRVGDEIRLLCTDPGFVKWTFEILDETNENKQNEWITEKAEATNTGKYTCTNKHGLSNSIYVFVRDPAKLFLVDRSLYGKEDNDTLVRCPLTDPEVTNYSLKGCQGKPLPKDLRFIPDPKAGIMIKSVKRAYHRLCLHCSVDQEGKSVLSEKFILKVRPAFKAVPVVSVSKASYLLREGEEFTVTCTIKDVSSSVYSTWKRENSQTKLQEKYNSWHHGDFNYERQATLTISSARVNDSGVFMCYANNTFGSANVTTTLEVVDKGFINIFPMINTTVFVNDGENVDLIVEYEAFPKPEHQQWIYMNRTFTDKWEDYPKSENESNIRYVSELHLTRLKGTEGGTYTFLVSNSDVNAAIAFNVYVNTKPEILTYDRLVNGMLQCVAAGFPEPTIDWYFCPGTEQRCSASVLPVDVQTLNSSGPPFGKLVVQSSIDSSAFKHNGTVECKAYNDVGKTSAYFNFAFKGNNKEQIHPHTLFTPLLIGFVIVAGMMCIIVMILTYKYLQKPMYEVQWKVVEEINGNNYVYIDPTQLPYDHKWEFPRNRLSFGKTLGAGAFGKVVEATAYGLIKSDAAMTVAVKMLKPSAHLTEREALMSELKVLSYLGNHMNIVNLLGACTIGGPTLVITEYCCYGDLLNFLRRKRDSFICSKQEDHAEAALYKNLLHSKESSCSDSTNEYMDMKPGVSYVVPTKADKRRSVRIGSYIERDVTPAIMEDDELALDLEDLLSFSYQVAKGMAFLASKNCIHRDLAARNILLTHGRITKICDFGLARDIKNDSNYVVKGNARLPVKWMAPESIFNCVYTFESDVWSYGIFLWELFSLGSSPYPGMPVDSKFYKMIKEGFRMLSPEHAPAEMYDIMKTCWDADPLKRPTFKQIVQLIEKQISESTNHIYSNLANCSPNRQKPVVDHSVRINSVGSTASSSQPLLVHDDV
Summary of the method: as §1

[12] = molecular target: T12, MAPKAPK5 (Homo sapiens, UniProt Q8IW41)
T12 construct: purchased ProQinase GmbH (Reaction Biology)
T12 sequence (Q8IW41 whole entry): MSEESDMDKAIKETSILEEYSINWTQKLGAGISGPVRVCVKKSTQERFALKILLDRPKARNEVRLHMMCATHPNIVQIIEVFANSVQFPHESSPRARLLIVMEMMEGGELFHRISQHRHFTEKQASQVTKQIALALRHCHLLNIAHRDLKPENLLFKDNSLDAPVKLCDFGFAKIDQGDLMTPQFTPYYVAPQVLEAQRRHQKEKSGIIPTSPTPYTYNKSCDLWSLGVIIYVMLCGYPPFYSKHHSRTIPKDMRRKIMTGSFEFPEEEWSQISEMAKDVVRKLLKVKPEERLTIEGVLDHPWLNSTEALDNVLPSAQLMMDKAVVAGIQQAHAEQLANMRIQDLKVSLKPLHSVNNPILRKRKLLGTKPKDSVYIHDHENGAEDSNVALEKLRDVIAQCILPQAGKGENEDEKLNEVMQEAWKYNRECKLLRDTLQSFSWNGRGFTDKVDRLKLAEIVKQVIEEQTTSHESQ
Summary of the method: as §1

[13] = molecular target: T13, MEK5 (Homo sapiens, UniProt Q13163)
T13 construct: either as full-length or enzymatically active fragments; purchased ProQinase GmbH (Reaction Biology)
Summary of the method: as §1

[14] = molecular target: T14, MEKK2 (Homo sapiens, UniProt Q9Y2U5)
T14 construct: either as full-length or enzymatically active fragments; purchased ProQinase GmbH (Reaction Biology)
Summary of the method: as §1

[15] = molecular target: T15, MEKK3 (Homo sapiens, UniProt Q99759)
T15 construct: purchased ProQinase GmbH (Reaction Biology); host or cells: Sf9 insect cells or E. coli (not specified per kinase)
T15 sequence (Q99759 whole entry): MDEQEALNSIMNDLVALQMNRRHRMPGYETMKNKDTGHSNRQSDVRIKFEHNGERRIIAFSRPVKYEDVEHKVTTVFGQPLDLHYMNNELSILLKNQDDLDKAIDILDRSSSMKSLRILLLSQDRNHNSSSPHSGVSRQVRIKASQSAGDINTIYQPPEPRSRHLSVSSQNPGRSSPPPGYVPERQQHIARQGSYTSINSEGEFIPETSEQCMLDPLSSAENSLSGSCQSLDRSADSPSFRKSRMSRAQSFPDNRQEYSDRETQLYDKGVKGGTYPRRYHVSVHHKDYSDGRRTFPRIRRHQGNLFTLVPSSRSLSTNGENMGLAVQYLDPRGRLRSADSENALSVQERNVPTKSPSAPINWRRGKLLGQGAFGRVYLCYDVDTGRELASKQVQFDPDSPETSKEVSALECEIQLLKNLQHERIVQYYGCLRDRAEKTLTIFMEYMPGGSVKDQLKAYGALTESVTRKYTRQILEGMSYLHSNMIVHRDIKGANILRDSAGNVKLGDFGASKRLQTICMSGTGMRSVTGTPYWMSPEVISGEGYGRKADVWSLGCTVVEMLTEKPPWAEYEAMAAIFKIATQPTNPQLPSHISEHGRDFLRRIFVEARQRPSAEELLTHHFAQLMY
Summary of the method: as §1

[16] = molecular target: T16, MINK1 (Homo sapiens, UniProt Q8N4C8)
T16 construct: either as full-length or enzymatically active fragments; purchased ProQinase GmbH (Reaction Biology)
Summary of the method: as §1

[17] = molecular target: T17, MLK4 (Homo sapiens, UniProt Q5TCX8)
T17 construct: either as full-length or enzymatically active fragments; purchased ProQinase GmbH (Reaction Biology); host or cells: Sf9 insect cells or E. coli (not specified per kinase)
Summary of the method: as §1

[18] = molecular target: T18, NEK7 (Homo sapiens, UniProt Q8TDX7)
T18 construct: either as full-length or enzymatically active fragments; purchased ProQinase GmbH (Reaction Biology); host or cells: Sf9 insect cells or E. coli
Summary of the method: as §1

[19] = molecular target: T19, NEK9 (Homo sapiens, UniProt Q8TD19)
T19 construct: either as full-length or enzymatically active fragments; purchased ProQinase GmbH (Reaction Biology)
Summary of the method: as §1

[20] = molecular target: T20, PAK1 (Homo sapiens, UniProt Q13153)
T20 construct: either as full-length or enzymatically active fragments; purchased ProQinase GmbH (Reaction Biology)
Summary of the method: as §1

[21] = molecular target: T21, PRK2 (Homo sapiens, UniProt Q16513)
T21 construct: either as full-length or enzymatically active fragments; purchased ProQinase GmbH (Reaction Biology)
Summary of the method: as §1

[22] = molecular target: T22, S6K (Homo sapiens, UniProt P23443)
T22 construct: either as full-length or enzymatically active fragments; purchased ProQinase GmbH (Reaction Biology); host or cells: Sf9 insect cells or E. coli (not specified per kinase)
Summary of the method: as §1

[23] = molecular target: T23, SIK3 (Homo sapiens, UniProt Q9Y2K2)
T23 construct: either as full-length or enzymatically active fragments; purchased ProQinase GmbH (Reaction Biology)
T23 sequence (Q9Y2K2 whole entry, the tested form may be a part): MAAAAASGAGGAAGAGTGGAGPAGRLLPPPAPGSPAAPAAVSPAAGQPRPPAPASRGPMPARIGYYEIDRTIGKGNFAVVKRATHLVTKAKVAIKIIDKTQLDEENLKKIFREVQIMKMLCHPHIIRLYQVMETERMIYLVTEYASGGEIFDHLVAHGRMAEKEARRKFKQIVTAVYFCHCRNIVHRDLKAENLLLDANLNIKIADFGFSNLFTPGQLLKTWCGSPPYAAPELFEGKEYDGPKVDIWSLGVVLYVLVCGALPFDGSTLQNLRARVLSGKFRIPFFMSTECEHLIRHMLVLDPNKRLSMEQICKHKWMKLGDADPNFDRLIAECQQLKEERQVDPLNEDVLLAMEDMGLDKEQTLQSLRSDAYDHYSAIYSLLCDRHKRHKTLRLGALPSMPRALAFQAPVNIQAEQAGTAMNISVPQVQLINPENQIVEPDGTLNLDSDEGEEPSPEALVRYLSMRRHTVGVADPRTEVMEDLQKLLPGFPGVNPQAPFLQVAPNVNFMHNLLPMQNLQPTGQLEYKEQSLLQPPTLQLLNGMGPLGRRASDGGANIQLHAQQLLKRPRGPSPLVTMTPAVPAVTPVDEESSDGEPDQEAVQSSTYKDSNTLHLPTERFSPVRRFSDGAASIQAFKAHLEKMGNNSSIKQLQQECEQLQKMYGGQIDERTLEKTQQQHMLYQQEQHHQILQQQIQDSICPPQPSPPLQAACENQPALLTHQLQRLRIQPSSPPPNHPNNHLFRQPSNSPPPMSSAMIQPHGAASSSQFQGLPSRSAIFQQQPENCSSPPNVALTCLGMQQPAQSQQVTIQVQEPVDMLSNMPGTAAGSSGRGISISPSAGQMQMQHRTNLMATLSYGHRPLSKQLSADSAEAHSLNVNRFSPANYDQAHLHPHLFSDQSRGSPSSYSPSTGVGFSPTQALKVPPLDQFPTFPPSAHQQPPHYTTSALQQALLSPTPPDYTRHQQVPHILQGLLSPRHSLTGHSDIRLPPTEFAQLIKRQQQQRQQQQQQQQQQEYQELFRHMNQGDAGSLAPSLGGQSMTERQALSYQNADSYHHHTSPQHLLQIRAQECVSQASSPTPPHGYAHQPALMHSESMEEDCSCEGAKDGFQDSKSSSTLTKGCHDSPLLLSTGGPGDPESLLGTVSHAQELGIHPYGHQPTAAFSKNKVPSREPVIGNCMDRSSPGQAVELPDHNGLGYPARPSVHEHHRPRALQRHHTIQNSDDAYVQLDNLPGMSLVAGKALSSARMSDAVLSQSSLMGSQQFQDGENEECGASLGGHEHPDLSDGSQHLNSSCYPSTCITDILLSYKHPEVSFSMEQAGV
Summary of the method: as §1

[24] = molecular target: T24, SLK (Homo sapiens, UniProt Q9H2G2)
T24 construct: either as full-length or enzymatically active fragments; purchased ProQinase GmbH (Reaction Biology)
Summary of the method: as §1

[25] = molecular target: T25, STK25 (Homo sapiens, UniProt O00506)
T25 construct: either as full-length or enzymatically active fragments; purchased ProQinase GmbH (Reaction Biology)
Summary of the method: as §1

[26] = molecular target: T26, STK39 (Homo sapiens, UniProt Q9UEW8)
T26 construct: either as full-length or enzymatically active fragments; purchased ProQinase GmbH (Reaction Biology)
Summary of the method: as §1

[27] = molecular target: T27, SYK (Homo sapiens, UniProt P43405)
T27 construct: either as full-length or enzymatically active fragments; purchased ProQinase GmbH (Reaction Biology)
Summary of the method: as §1

[28] = molecular target: T28, TRKC (Homo sapiens, UniProt Q16288)
T28 construct: either as full-length or enzymatically active fragments; purchased ProQinase GmbH (Reaction Biology)
Summary of the method: as §1

[29] = molecular target: T29, ULK2 (Homo sapiens, UniProt Q8IYT8)
T29 construct: either as full-length or enzymatically active fragments; purchased ProQinase GmbH (Reaction Biology)
Summary of the method: as §1

[30] = molecular target: T30, VRK1 (Homo sapiens, UniProt Q99986)
T30 construct: either as full-length or enzymatically active fragments; purchased ProQinase GmbH (Reaction Biology)
Summary of the method: as §1

[31] = molecular target: T31, ZAP70 (Homo sapiens, UniProt P43403)
T31 construct: either as full-length or enzymatically active fragments; purchased ProQinase GmbH (Reaction Biology)
T31 sequence (P43403 whole entry, the tested form may be a part): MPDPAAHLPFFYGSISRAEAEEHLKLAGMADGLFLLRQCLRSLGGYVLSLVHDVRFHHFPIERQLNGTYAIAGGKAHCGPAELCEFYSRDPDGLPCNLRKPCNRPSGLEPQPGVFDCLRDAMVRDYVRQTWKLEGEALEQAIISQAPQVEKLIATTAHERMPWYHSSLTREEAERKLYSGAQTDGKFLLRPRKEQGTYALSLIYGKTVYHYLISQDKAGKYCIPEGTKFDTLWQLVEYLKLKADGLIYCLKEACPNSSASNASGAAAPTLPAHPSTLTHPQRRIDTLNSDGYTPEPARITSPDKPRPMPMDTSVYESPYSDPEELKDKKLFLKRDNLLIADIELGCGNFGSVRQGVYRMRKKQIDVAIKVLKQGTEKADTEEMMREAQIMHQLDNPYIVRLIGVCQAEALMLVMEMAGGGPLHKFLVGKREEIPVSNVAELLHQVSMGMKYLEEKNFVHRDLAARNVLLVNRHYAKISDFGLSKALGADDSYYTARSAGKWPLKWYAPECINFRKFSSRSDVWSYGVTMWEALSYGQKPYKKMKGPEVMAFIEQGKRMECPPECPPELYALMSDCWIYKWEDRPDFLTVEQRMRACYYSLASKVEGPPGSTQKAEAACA
Summary of the method: as §1

`C=CC(=O)Nc1ccc(C(=O)N2CC[C@@H](Nc3ncc(C#N)cn3)C2)cc1` [Compound 4, (R)-N-(4-(3-((5-cyanopyrimidin-2-yl)amino)pyrrolidine-1-carbonyl)phenyl)acrylamide] showed an inhibition at 1 µM [1] of 7%, an inhibition at 1 µM [2] of 90% and an inhibition at 1 µM [3] of 17%. The inhibition at 1 µM [4] was 14%, the inhibition at 1 µM [5] was 3% and the inhibition at 1 µM [6] was 5%. The inhibition at 1 µM [7] was -2%, the inhibition at 1 µM [8] was 13% and the inhibition at 1 µM [9] was -8%. It also gave an inhibition at 1 µM [10] of -1%, an inhibition at 1 µM [11] of -4% and an inhibition at 1 µM [12] of -1%. It also gave an inhibition at 1 µM [13] of 23%, an inhibition at 1 µM [14] of 8% and an inhibition at 1 µM [15] of 1%. The inhibition at 1 µM [16] was 16%, the inhibition at 1 µM [17] was 9% and the inhibition at 1 µM [18] was -15%. The inhibition at 1 µM [19] was -5%, the inhibition at 1 µM [20] was -6% and the inhibition at 1 µM [21] was 2%. The inhibition at 1 µM [22] was 9%, the inhibition at 1 µM [23] was 8% and the inhibition at 1 µM [24] was 21%. It also gave an inhibition at 1 µM [25] of 7%, an inhibition at 1 µM [26] of 6% and an inhibition at 1 µM [27] of 2%. For the same compound, the inhibition at 1 µM [28] was -11%, the inhibition at 1 µM [29] was 3% and the inhibition at 1 µM [30] was 2%. The inhibition at 1 µM [31] was -6%.
